Values of other authors in patent publication US20050106735A1, “COMPOSITON FOR NON-TOXIC, NON-HAZARDOUS, AND ENVIRONMENTALLY FRIENDLY HUMIDITY-INDICATING AGENT AND ITS APPLICATION” (GP&E AMERICA, LLC, priority 2004, published 2005).

Tests used:
Rat = details: oral

| Structure (SMILES) | Concentration at which the substance may cause cancer by inhalation (Commission Directive 2004/73/EC) [%] | European Union carcinogen classification (Council Directive 67/548/EEC) | Toxicity (ORL-RAT LD50) (Rat) [mg/kg] | Toxicity to aquatic organisms (aquatic organisms) |
| --- | --- | --- | --- | --- |
| [Cl][Co][Cl] [Cobalt Chloride] | ≥ 0.01 | category 2 carcinogen | 80 | – |
| [Cl][Cu][Cl] [Copper Chloride] | – | – | 584 | – |
| [Cl-].[Cl-].[Mg+2] [Magnesium Chloride] | – | – | 8100 | – |
| [Cl-].[Na+] [Sodium Chloride] | – | – | 3000 | – |
| [Cl-].[Cl-].[Zn+2] [Zinc Chloride] | – | – | 350 | very toxic to aquatic organisms |
